Assay results published in article PMC10851555, “Safinamide, an inhibitor of monoamine oxidase, modulates the magnitude, gating, and hysteresis of sodium ion current” (BMC Pharmacology & Toxicology, 2024).
Like-named read-outs stand apart in the source and are kept apart here.

Tests used:
Format in all cases: cell-based, rat
[1] = system: voltage-gated sodium ion (NaV) channels in pituitary GH3 cells; experiment: Whole-cell INa(T) decay during a 1-s, 20-Hz train of depolarizing pulses in GH3 cells; settings: for effect on SAF-induced increase in decaying time constant of INa(T): 10 μM added in the presence of 10 μM SAF; for decaying time constant of INa(T) during train of depolarizing pulses: 10 μM alone, control 66 ± 5 ms, n = 7
Experimental: Shortly before experiments, GH3 was carefully suspended in normal Tyrode’s solution at room temperature (20–25 °C). A few drops of the suspension containing cell clumps were immediately added to a custom-built chamber on the stage of an inverted Diaphot-200 microscope (Nikon, Tokyo, Japan). Pipettes were pulled from Kimax-51 soft-glass capillaries (#34500-99; Kimble, Vineland, NJ) by using a Narishige PP-830 Vertical Puller (Tokyo, Japan), and their tips were fire-polished using a microforge (MF-83, Narishige). During the measurements, an electrode with a tip resistance of 2–4 MΩ, which was tightly inserted into a holder, was maneuvered using a WR-98 micromanipulator (Narishige). Patch-clamp experiments were performed in the voltage-clamp mode with either cell-attached or whole-cell configuration (rupturing of the membrane patch after GΩ formation) by using a RK-400 Patch-Clamp Amplifier (Bio-Logic, Claix, France) connected to a laptop. Shortly before GΩ formation, potential correction was performed for a liquid junction potential, which developed at the electrode’s tip because of the difference in the compositions of the internal and bath solutions.
SAF is efficacious as an add-on therapy following subthalamic nucleus deep brain stimulation in patients with Parkinson’s disease. Therefore, we investigated whether SAF could modify the inactivation of currents induced by a train of depolarizing stimuli. The test cells were maintained at −80 mV and subjected to repetitive depolarization to −10 mV (40 ms per pulse; rate of 20 Hz; duration of 1 s). Similar to the findings of relevant studies, during the control period (the absence of SAF), INa(T) inactivation was noticed to be induced by 1 s of repetitive depolarization stimuli (−80 to −10 mV) with a decaying time constant of 65 ± 4 ms (n = 7; Fig. 6A, 6B and 6C). […] In the presence of 3 and 10 μM SAF, the exponential time course of INa(T) induced by the same train of depolarizing pulses was longer at 107 ± 5 ms (n = 7, P < 0.05) and 124 ± 6 ms (n = 7, P < 0.05), respectively. Furthermore, as MGB and ranolazine have been reported to suppress the amplitude of INa effectively, we added ranolazine (Ran; 10 μM) and mirogabalin (MGB; 10 μM) separately in the presence of 10 μM SAF. […] The application of Ran (10 μM) or MGB (10 μM) alone decreased the decaying time constant of INa(T) during the same train of depolarizing pulses to 39 ± 4 ms (n = 7, P < 0.05) or 42 ± 4 ms (n = 7, P < 0.05), respectively, from a control value of 66 ± 5 ms (n = 7). Thus, in addition to increasing the magnitude of INa(T), SAF prominently affects the decaying of INa(T) subjected to a 1-s train of depolarizing pulses.
Fig. 6 Effect of SAF on INa(T) decay induced by a train of depolarizing pulses in GH3 cells. The train of pulses comprised twenty 40-ms pulses (voltage increased to −10 mV) with 10-ms intervals at −80 mV for a total duration of 1 s. (A) Current traces during the control period (a, blue) and during exposure to 10 μM SAF (b, red). The voltage-clamp protocol used is indicated atop the current traces. In panel A, the third graphs (blue and red) from the top are the expanded forms of the second graphs (brown dashed boxes). (B) The relative amplitude of INa(T) versus pulse train duration in the absence (blue open circles) and presence (red open squares) of 10 μM SAF (mean ± standard error of the mean; n = 7 for each point). The INa(T) amplitudes were normalized by dividing the current amplitudes at the end of each pulse-train stimulation by those obtained at the beginning of the pulse train stimulation. The gray continuous lines on which the data points are overlaid are reliably fitted with a single exponential.

[2] = system: single NaV channels in GH3 cells; experiment: Cell-attached single-channel NaV current recordings in GH3 cells; settings: n = 7
Experimental: The composition of the external or bath solution [4-(2-hydroxyethyl)-1-piperazineethanesulfonic acid (HEPES)-buffered normal Tyrode’s solution] was as follows: 136.5 mM NaCl, 1.8 mM CaCl2, 5.4 mM KCl, 0.53 mM MgCl2, 5.5 mM glucose, and 5.5 mM HEPES–NaOH (pH 7.4). To measure K^+ currents (data not shown), we filled a patch pipette with an internal solution comprising 140 mM KCl, 1 mM MgCl2, 3 mM adenosine 5′-triphosphate disodium salt, 0.1 mM guanosine 5′-triphosphate disodium salt, 0.1 mM ethylene glycol tetraacetic acid, and 5 mM HEPES–KOH buffer (pH 7.2). To record the whole-cell INa, the K^+ in the internal solution was substituted with Cs^+, and the pH of the solution was adjusted to 7.2 by adding cesium hydroxide. In the single-channel experiments performed to record NaV currents, the pipette was filled with a Na^+-rich solution containing 136 mM NaCl, 0.53 mM MgCl2, 5.5 mM glucose, and 5.5 mM HEPES–NaOH (pH 7.2). The bath medium was a K^+-rich solution comprising 130 mM KCl, 10 mM NaCl, 3 mM MgCl2, 6 mM glucose, and 10 mM HEPES-KOH (pH 7.4). The solutions and culture media were generally filtered on the day of use by using sterile Acrodisc Syringe Filters containing a 0.2-μm Supor Membrane (Bio-Check; New Taipei City, Taiwan).
Single-channel NaV currents induced by depolarizing pulses ranging from −100 to −10 mV were measured and subsequently analyzed using pCLAMP 10.7. The opening events of the channels were generally evaluated through multi-Gaussian adjustments of the distribution of amplitude across channels. Functional independence between channels was determined by comparing the observed stationary probabilities with the values calculated based on the binomial law. For dwell-time analyses, only a single channel was used in the patch-clamp experiment.
To elucidate the mechanisms underlying the effects of SAF on the magnitude of INa, we investigated the actions of SAF and SAF plus MGB on single-channel NaV currents. This experiment was performed using the cell-attached configuration of the voltage-clamp test. Test cells were placed in K^+-rich solution, and the recording pipette was filled with Na^+-rich solution. SAF (10 μM) increased channel activity and decelerated current inactivation when the cells were exposed to depolarization stimuli ascending from –100 to –10 mV (rate of 0.1 Hz; Fig. 9A). Furthermore, the addition of MGB (10 μM) in the presence of 10 μM SAF reduced the probability of channel opening. […] Moreover, with the presence of 10 μM SAF, the mean open time of NaV channels was prolonged to […] (n = 7, P < 0.05) msec from a control value of 2.3 ± 0.3 msec (n = 7). […] Consistent with these findings, the mean open time of the NaV channel in the presence of 10 μM SAF (5.9 ± 1.1 ms; n = 7; P < 0.05) was longer than that in the control period (2.3 ± 0.3 ms, n = 7); the subsequent further addition of 10 μM MGB decreased the mean open time to 3.7 ± 0.7 ms (n = 7, P < 0.05) (Fig. 9B). […] MGB added during SAF exposure reversed the SAF-induced increase in NaV channel activity.

[3] = system: voltage-gated sodium ion (NaV) channels in pituitary GH3 cells; experiment: Whole-cell patch-clamp of INa induced by a 30-ms depolarizing pulse (−100 to −10 mV) in GH3 cells; settings: for reversal of SAF-mediated increase in INa(T): 10 μM added during exposure to SAF (30 μM); for reversal of SAF-mediated increase in INa(T) / effect on magnitude of INa(T): n = 7; for effect on magnitude of INa(T): dopamine or serotonin alone
[4] = system: voltage-gated sodium ion (NaV) channels in pituitary GH3 cells; experiment: Window INa [INa(W)] induced by ascending ramp voltage (−100 to +40 mV over 200 ms) in GH3 cells; settings: Ran 10 μM added in the presence of SAF 10 μM
Description: The sigmoidal relationship between Vramp-induced INa(W) and the upsloping Vramp (nonlinear current–voltage relationship) was investigated and fitted with the Boltzmann function as follows: [drawing 2]
where V is the membrane potential in millivolts, Erev is the reversal potential of INa, G is the INa conductance in nanosiemens, I is the current, Vh is the voltage at which half-maximal activation or inactivation of the current occurs, q is the apparent gating charge, F is Faraday’s constant, R is the universal gas constant, and T is the absolute temperature.
The free energy ∆G0 for the gating of INa(W) was determined by assuming a two-state gating model [equilibrium between closed (resting) and open states] of the NaV channel. The ∆G0 for the activation of INa(W) at 0 mV could be calculated as follows: q × F × V1/2 [45, 46]. The standard errors in ∆G0 ( [drawing 3] ) could be calculated as follows: […]
In the present study, we investigated whether the addition of SAF to GH3 cells modulates the magnitude of INa(W) induced by ascending Vramp. Test cells were maintained at −80 mV and subjected to Vramp ascending from −100 to +40 mV over 200 ms (i.e., ramp speed of 0.7 mV/ms) to induce INa(W). […] The ∆area values of INa(W) in the absence and presence of SAF and SAF plus Ran were calculated (Fig. 7B).
Fig. 7 Stimulatory effects of SAF on window INa [INa(W)] induced by an ascending ramp voltage Vramp in GH3 cells. For the experiments, the test cells were maintained at −80 mV and subjected to Vramp ranging from −100 to +40 mV over 200 ms (ramp speed of 0.7 mV/ms). (A) INa(W) trace in the absence (a, blue) and presence (b, red) of 10 μM SAF. The inset indicates the Vramp protocol, and the downward deflection indicates inward-directed current. The continuous gray lines corresponding to the untreated or SAF-treated (10 μM) cells were fitted (least-squares minimization) with the Boltzmann equation. The values of […] and q (apparent gating charge) induced by ascending Vramp over 200 ms in the absence (blue) of SAF were, respectively, −34 mV and 2.1 e; the corresponding values in the presence (red) of 10 μM SAF were −38 mV and 2.8 e, respectively. (B) Summary graph illustrating the effects of SAF (3 and 10 μM) and SAF (10 μM) plus Ran (10 μM) on the Δarea of INa(W) in GH3 cells (mean ± standard error of the mean; n = 7 for each point). The value of Δarea was measured at a voltage ranging from −80 and +40 mV, which corresponded to INa(W) induced by the ascending Vramp. […] (C) Summary graph illustrating the effects of SAF (3 and 10 μM) and SAF plus Ran (10 μM) on ΔG0 (mean ± standard error of the mean; n = 7 for each point). The estimation of ΔG0 for the induction of instantaneous INa(W) is described in the Materials and Methods section.

[5] = 10 μM MGB added in the presence of 10 μM SAF

## CCC1=C[C@@H]2[C@H](C1)C[C@]2(CN)CC(=O)O [MGB, mirogabalin]
[1]
  effect on SAF-induced increase in decaying time constant of INa(T): effectively attenuated the SAF-induced increase in the decaying time constant
  decaying time constant of INa(T) during train of depolarizing pulses: 42 ± 4 ms
[2]; [5]
  mean open time of the NaV channel: 3.7 ± 0.7 ms
  open-state probability of the NaV channel: 0.041 ± 0.007
[2]; SAF plus MGB, control 2.01 ± 0.35 pA
  amplitude of the single-channel current: 2.00 ± 0.44 pA

## Cc1c(F)c(F)c(COC(=O)[C@@H]2[C@H](/C=C(\Cl)C(F)(F)F)C2(C)C)c(F)c1F (racemic) [Tef, tefluthrin]
[3]; 10 μM
  effect on rapid inward current (INa) induced by short depolarizing pulse: stimulated

## NCCc1ccc(O)c(O)c1 [dopamine]
[3]
  reversal of SAF-mediated increase in INa(T): neither dopamine nor serotonin reversed the SAF-mediated increase in INa(T)
  effect on magnitude of INa(T): neither dopamine nor serotonin altered the magnitude of INa(T)

## NC1=N[C@H](O)[C@H]2[C@H]3O[C@]4(O)O[C@@H]([C@@H](O)[C@@]2(N1)[C@@H]4O)[C@]3(O)CO [TTX, tetrodotoxin]
[3]
  amplitude of INa(L): 2 ± 1 pA
  amplitude of INa(T): 18 ± 2 pA
  effect on rapid inward current (INa) induced by short depolarizing pulse: blocked

## COc1ccccc1OCC(O)CN1CCN(CC(=O)Nc2c(C)cccc2C)CC1 (stereo not drawn) [Ran, ranolazine]
[1]
  effect on SAF-induced increase in decaying time constant of INa(T): effectively attenuated the SAF-induced increase in the decaying time constant
  decaying time constant of INa(T) during train of depolarizing pulses: 39 ± 4 ms
[4]
  effect on SAF-mediated increase in ∆G0 of INa(W): effectively attenuated the SAF-mediated increase in ∆G0
  effect on SAF-mediated increase in ∆area of INa(W): reversed the SAF-mediated increase

## NCCc1c[nH]c2ccc(O)cc12 [serotonin]
[3]
  reversal of SAF-mediated increase in INa(T): neither dopamine nor serotonin reversed the SAF-mediated increase in INa(T)
  effect on magnitude of INa(T): neither dopamine nor serotonin altered the magnitude of INa(T)

## C/C=C/C1C(C(=O)OCc2c(F)c(F)c(COC)c(F)c2F)C1(C)C (stereo not drawn) [metofluthrin]
[3]; 10 μM
  effect on rapid inward current (INa) induced by short depolarizing pulse: stimulated
